According to US10392402B2, “Heterocyclic compounds as kinase inhibitors” (TRANSLATIONAL DRUG DEVELOPMENT LLC, priority 2015, dated 2019):
pIC50: −log10 of the molar value.

Columns and labels:
ROCK2 = ROCK2 (Homo sapiens (Human), UniProt O75116); experiment: ROCK2 kinase inhibition assay (LABCHIP peptide phosphorylation); type: biochemical; settings: 7 μM ATP, 2.5 nM ROCK2, 3 hours at 25° C.
Method: (§1) The peptide is >98% purity by Capillary Electrophoresis. The peptide is phosphorylated by the protein kinase ROCK1 or ROCK2. The ROCK1 or ROCK2 enzyme, substrate, and cofactors (ATP and Mg^2+) are combined in a well of a microtiter plate and incubated for 3 hours at 25° C. At the end of the incubation, the reaction is quenched by the addition of an EDTA-containing buffer. The substrate and product are separated and quantified electrophoretically using the microfluidic-based LABCHIP® 3000 Drug Discovery System from Caliper Life Sciences (Hopkinton, Mass.).
(§2) Substrate and product peptides present in each sample are separated electrophoretically using the LABCHIP® 3000 capillary electrophoresis instrument. […] Change in the relative fluorescence intensity of the substrate and product peaks is the parameter measured reflecting enzyme activity. Capillary electrophoregramms (RDA acquisition files) are analyzed using HTS Well Analyzer software (Caliper Life Sciences, Hopkinton, Mass.). The kinase activity in each sample is determined as the product to sum ratio (PSR): P/(S+P), where P is the peak height of the product peptide and S is the peak height of the substrate peptide. For each compound, enzyme activity is measured at various concentrations (12 concentrations of compound spaced by 3× dilution intervals). Negative control samples (0%-inhibition in the absence of inhibitor) and positive control samples (100%-inhibition in the presence of 20 mM EDTA) are assembled in replicates of four and are used to calculate %-inhibition values for each compound at each concentration. Percent inhibition (Pinh) is determined using the following equation: Pinh=(PSR0%−PSRinh)/(PSR0%−PSR100%)*100 where PSRinh is the product sum ratio in the presence of inhibitor, PSR/% is the average product sum ratio in the absence of inhibitor, and PSR100% is the average product sum ratio in 100%-inhibition control samples. The IC50 values of inhibitors are determined by fitting the inhibition curves (Pinh versus inhibitor concentration) by 4 parameter sigmoidal dose-response model using XLfit 4 software (IBDS).

MV411 cell line = experiment: Cell viability assay ([…]-GLO), MV411; type: cell-based; settings: for pIC50: Homo sapiens, MV4-11, MV411 (ITD-FLT3+), 72 hours treatment; for FLT3-ITD+ Selectivity (K562/MV411): ratio of K562 to MV411 IC50
Method: (§3) Cell viability in the presence of varying concentrations of the above listed compounds at different time points was used to assess cytotoxicity and the effect of the compounds on cell proliferation.
(§4) Cell viability was measured by the […]-GlO® cell viability assay from Promega (Madison, Wis.). The […]-GlO® Luminescent Cell Viability Assay is a homogeneous method to determine the number of viable cells in culture based on quantitation of the ATP present, which signals the presence of metabolically active cells. Following treatment, […]-GlO® is added to treatment wells and incubated at 37° C. luminescence values were measured at using a Molecular Devices Spectramax microplate reader.
(§5) Cells were grown to 70% confluency, trypsinized, counted, and seeded in 96 well flat-bottom plates at a final concentration of 2.5×10^3-5×10^3 cells/well (Day 0). Cells were allowed to incubate in growth media for 24 hours. Treatment with the test agents or standard agents began on Day 1 and continued for 72 hours. At the 72-hour time point, treatment containing media was removed.
(§6) For single agent and combination studies, data from each experiment was collected and expressed as % Cell Growth using the following calculation: % Cell Growth=(ftest/fvehicle)×100 Where ftest is the luminescence of the tested sample, and fvehicle is the luminescence of the vehicle in which the drug is dissolved. Dose response graphs and IC50 values were generated using Prism 6 software (GraphPad) using the following equation: Y=(Top−Bottom/(1+10^((logIC50−X)−HillSlope)) Where X is the logarithm of the concentration and Y is the response. Y starts at the Bottom and goes to the Top with a sigmoid shape.
The experiments also evaluated the selectivity of the compounds for inhibiting growth of cancer cells carrying a mutation in the Flt3 gene. The MV411 cell line expresses the mutant allele of Flt3 with internal tandem duplications (ITD) of the gene. See Quentmeier et al., “FLT3 Mutations in Acute Myeloid Leukemia Cell Lines,” Leukemia 17(1), 2003, 120-124. […] See Grafone et al., “Monitoring of FLT3 Phosphorylation Status and Its Response to Drugs By Flow Cytometry in AML Blast Cells,” Hematol Oncol. 26(3), 2008, 159-166. Patients with ITD-FLT3^+ acute myeloid leukemia (AML) experience an extremely poor prognosis.

K562 cell line = experiment: Cell viability assay ([…]-GLO), K562; type: cell-based; settings: Homo sapiens; K562 (does not express ITD-FLT3), 72 hours treatment
Method: as §3, §4
as §5, with “removed. Viable cell numbers were quantified by the […]-GLO® cell viability assay as described above. Results from these studies were used to calculate an IC50 value (concentration of drug that inhibits cell growth by 50 percent of control) for each compound.” for “removed.”
as §6, with “shape. […]” for “shape.”

ROCK1 = ROCK1 (Homo sapiens (Human), UniProt Q13464); experiment: ROCK1 kinase inhibition assay (LABCHIP peptide phosphorylation); type: biochemical; settings: 5 μM ATP, 3 nM ROCK1, 3 hours at 25° C.
Sequence of ROCK1 (Q13464 whole entry): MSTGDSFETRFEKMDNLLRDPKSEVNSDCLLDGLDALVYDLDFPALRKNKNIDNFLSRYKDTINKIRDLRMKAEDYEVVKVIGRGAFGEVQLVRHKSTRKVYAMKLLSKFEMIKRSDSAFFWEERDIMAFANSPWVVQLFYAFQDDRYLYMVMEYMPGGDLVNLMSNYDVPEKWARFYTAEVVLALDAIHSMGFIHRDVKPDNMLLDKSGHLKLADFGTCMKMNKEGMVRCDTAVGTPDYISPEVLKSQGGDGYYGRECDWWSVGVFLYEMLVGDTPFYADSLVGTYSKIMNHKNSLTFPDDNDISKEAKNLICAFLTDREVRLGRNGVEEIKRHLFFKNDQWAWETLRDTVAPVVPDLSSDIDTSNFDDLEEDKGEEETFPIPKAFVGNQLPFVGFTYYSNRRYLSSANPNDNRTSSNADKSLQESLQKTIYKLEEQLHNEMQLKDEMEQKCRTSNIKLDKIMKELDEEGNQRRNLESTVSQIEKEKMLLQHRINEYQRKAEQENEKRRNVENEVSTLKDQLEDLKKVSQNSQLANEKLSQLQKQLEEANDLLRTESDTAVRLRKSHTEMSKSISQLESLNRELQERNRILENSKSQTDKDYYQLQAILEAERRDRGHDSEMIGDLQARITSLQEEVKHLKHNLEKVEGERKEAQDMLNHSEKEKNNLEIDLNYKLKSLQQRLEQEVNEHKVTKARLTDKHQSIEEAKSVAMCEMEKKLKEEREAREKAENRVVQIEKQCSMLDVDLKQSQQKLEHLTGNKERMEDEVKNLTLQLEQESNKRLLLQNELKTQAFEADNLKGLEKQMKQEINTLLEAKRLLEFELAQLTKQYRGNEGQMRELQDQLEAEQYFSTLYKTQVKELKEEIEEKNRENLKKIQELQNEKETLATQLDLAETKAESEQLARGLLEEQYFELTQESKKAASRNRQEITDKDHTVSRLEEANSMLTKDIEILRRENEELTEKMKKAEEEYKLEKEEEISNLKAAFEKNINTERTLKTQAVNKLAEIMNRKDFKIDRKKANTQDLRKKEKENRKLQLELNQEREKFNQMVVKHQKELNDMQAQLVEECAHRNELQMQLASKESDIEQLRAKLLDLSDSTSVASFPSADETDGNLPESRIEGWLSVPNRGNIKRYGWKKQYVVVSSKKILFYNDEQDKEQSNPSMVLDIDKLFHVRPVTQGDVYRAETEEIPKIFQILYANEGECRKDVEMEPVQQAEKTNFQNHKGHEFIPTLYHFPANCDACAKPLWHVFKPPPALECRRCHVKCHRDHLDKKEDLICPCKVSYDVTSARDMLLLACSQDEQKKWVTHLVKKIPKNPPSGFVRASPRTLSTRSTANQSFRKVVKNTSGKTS
Method: as §1, §2

Sequence of ROCK2 (O75116 whole entry): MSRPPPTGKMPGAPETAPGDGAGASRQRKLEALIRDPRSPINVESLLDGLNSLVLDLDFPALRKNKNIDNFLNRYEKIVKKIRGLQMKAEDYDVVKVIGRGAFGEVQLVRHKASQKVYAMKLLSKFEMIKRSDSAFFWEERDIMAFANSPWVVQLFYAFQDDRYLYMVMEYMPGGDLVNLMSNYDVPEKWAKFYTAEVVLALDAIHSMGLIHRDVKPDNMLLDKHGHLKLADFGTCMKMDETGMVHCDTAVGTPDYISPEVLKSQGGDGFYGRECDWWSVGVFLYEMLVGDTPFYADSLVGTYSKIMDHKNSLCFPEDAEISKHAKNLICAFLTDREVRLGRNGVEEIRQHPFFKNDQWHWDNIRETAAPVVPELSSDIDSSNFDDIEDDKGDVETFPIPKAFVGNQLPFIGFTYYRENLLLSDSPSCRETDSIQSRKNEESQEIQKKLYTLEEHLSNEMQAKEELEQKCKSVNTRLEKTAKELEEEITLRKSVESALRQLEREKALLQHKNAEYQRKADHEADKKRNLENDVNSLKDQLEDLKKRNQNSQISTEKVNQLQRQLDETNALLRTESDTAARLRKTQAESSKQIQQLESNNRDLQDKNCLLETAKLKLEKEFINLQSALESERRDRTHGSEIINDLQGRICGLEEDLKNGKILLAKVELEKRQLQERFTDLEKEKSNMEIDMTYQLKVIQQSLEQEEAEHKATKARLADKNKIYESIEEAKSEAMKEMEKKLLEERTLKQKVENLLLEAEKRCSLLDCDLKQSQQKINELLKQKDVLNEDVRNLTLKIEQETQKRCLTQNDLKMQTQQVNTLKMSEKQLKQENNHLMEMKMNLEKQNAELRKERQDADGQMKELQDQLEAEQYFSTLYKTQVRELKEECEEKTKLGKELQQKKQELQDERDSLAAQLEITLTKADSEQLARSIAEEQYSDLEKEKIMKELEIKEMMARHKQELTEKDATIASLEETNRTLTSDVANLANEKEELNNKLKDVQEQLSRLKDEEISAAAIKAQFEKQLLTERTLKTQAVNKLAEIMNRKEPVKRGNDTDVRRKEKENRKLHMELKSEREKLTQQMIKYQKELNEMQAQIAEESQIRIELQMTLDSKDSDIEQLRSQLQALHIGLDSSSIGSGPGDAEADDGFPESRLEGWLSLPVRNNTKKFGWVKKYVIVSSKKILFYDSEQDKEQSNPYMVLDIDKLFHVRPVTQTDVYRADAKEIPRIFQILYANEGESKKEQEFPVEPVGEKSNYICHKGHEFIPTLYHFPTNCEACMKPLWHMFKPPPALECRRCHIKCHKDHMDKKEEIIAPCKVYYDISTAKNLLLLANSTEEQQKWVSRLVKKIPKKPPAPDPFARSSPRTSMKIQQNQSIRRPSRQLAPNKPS

Compound | pIC50 (ROCK2) | pIC50 (MV411 cell line) | pIC50 (K562 cell line) | pIC50 (ROCK1) | FLT3-ITD+ Selectivity (K562/MV411) (MV411 cell line)
O=C(N[C@H](CO)c1cccc(F)c1)c1cc(-c2ccncc2)[nH]n1 [Compound 1] | 7.01 | 4.17 | < 4.00 | 6.68 | >1
COc1cc(CNC(=O)Nc2cc(-c3ccncc3)[nH]n2)ccc1F [Compound 47] |  | 5.11 | 4.75 |  | 2
COc1cccc(CNC(=O)Nc2cc(-c3ccncc3)[nH]n2)c1F [Compound 48] | 5.73 |  |  | 5.19 | 
COc1cc(F)cc(CNC(=O)Nc2cc(-c3ccncc3)[nH]n2)c1 [Compound 49] |  | 5.11 | 4.75 |  | 2
COc1ccc(F)c(CNC(=O)Nc2cc(-c3ccncc3)[nH]n2)c1 [Compound 50] | 6.62 | 5.11 | < 4.00 | 6.00 | >13
COc1ccc(OC)c(CNC(=O)Nc2cc(-c3ccncc3)n[nH]2)c1 [Compound 54] |  | 4.90 | < 4.00 |  | >8
Cc1c[nH]c2nccc(Oc3c(F)cc(Nc4cc(Cl)nc(N)n4)cc3F)c12 [Compound A, reference compound] |  | 6.15 | 6.10 |  | 

More lines, main results first:

pIC50 (ROCK2) | pIC50 (MV411 cell line) | pIC50 (K562 cell line) | pIC50 (ROCK1) | Compound | FLT3-ITD+ Selectivity (K562/MV411) (MV411 cell line)
 | 4.36 | < 4.00 |  | O=C(NCc1cccc(O)c1)Nc1cc(-c2ccncc2)[nH]n1 [Compound 3] | >2
7.79 | 4.99 | 4.36 | 7.14 | COc1cccc(CNC(=O)Nc2cc(-c3ccncc3)[nH]n2)c1 [Compound 5] | 4
7.64 | 5.12 | 4.05 | 6.99 | COc1cccc(CN(C)C(=O)Nc2cc(-c3ccncc3)[nH]n2)c1 [Compound 7] | 12
7.41 | 4.40 | 4.01 | 6.63 | COc1cccc(CN(CCO)C(=O)Nc2cc(-c3ccncc3)[nH]n2)c1 [Compound 9] | 2
7.66 | 4.84 | < 4.00 | 7.20 | COc1cccc(CN(CCN(C)C)C(=O)Nc2cc(-c3ccncc3)[nH]n2)c1 [Compound 11] | >7
7.54 | 4.47 | 4.07 | 6.89 | COc1cccc(CNC(=O)Nc2cnn(-c3ccncc3)c2)c1 [Compound 25] | 3
7.76 | 5.15 | < 4.00 | 7.19 | COc1cccc(CNC(=O)c2cc3ccc(-c4cn[nH]c4)nc3s2)c1 [Compound 40] | >14
 | 4.77 | < 4.00 |  | COCCOc1cccc(CNC(=O)Nc2cc(-c3ccncc3)[nH]n2)c1 [Compound 51] | >6
8.06 | 4.95 | < 4.00 | 7.47 | COc1cccc([C@@H](C)NC(=O)Nc2cc(-c3ccncc3)n[nH]2)c1 [Compound 52] | >9
 | 4.03 | 4.19 |  | COc1cccc([C@@H](C)NC(=O)N(C)c2cc(-c3ccncc3)n[nH]2)c1 [Compound 53] | 1
